These are literature values, as cited in patent publication US20120128764A1, “CONTROLLED-RELEASE COMPOSITIONS COMPRISING A PROTON PUMP INHIBITOR” (Aptalis Pharmatech, Inc., priority 2009, published 2012).

Test in data set [1]: not given
This is another data set of the same source.

SMILES strings stand for the structures.

In the case of `COc1ccnc(C[S+]([O-])c2nc3ccc(OC(F)F)cc3[nH]2)c1OC` (stereo not drawn) [Pantoprazole sodium sesquihydrate], under “phosphate buffer at pH 7.4”, the “solubility in phosphate buffer” value is “very slightly soluble”. Also, the solubility in water result (water) was “freely soluble”.
In the case of `COc1ccnc(C[S+]([O-])c2nc3ccc(OC(F)F)cc3[nH]2)c1OC` (stereo not drawn) [Pantoprazole, 5-(difluoromethoxy)-2-[(3,4-dimethoxypyridin-2-yl)methylsulfinyl]-3H-benzoimidazole], in data set [1] (after oral administration), the “mean Tmax” value is on record as “approximately 90 minutes”. In addition, the “half-life (t1/2)” value in data set [1] (elimination) was 1.8 h. Moreover, in data set [1] (multiple dosing), the “accumulation upon multiple dosing” value was “does not accumulate”. In addition, the “dose proportionality of Cmax and AUC” value in data set [1] (over 10 mg to 80 mg doses) is on record as “dose proportional”.
